Values of other authors, collected in patent US20130316464A1, “ANALYTE […] AND METHOD” (priority 2010, published 2013).

Tested on: erythrocytes
Details: whole blood

CC(C)c1cccc(C(C)C)c1O [propofol, 2,6-diisopropylphenol]
proportion of the propofol partitioned into / bound to blood cells (erythrocytes): 30-40%
